{"source": "patent US12516039B2", "about": "“N-linked isoquinoline amides as LRRK2 inhibitors, pharmaceutical compositions, and uses thereof” (Merck Sharp & Dohme LLC, priority 2020, dated 2026)", "data": [{"biological_target": "T1, GST-tagged truncated human mutant G2019S LRRK2 (Homo sapiens, UniProt Q5S007, G2019S)", "T1 construct": "GST-tagged truncated human mutant G2019S LRRK2; purchased Life Technologies Corporation (Carlsbad, CA)", "T1 sequence (Q5S007 970-2527 G2019S limits assumed)": "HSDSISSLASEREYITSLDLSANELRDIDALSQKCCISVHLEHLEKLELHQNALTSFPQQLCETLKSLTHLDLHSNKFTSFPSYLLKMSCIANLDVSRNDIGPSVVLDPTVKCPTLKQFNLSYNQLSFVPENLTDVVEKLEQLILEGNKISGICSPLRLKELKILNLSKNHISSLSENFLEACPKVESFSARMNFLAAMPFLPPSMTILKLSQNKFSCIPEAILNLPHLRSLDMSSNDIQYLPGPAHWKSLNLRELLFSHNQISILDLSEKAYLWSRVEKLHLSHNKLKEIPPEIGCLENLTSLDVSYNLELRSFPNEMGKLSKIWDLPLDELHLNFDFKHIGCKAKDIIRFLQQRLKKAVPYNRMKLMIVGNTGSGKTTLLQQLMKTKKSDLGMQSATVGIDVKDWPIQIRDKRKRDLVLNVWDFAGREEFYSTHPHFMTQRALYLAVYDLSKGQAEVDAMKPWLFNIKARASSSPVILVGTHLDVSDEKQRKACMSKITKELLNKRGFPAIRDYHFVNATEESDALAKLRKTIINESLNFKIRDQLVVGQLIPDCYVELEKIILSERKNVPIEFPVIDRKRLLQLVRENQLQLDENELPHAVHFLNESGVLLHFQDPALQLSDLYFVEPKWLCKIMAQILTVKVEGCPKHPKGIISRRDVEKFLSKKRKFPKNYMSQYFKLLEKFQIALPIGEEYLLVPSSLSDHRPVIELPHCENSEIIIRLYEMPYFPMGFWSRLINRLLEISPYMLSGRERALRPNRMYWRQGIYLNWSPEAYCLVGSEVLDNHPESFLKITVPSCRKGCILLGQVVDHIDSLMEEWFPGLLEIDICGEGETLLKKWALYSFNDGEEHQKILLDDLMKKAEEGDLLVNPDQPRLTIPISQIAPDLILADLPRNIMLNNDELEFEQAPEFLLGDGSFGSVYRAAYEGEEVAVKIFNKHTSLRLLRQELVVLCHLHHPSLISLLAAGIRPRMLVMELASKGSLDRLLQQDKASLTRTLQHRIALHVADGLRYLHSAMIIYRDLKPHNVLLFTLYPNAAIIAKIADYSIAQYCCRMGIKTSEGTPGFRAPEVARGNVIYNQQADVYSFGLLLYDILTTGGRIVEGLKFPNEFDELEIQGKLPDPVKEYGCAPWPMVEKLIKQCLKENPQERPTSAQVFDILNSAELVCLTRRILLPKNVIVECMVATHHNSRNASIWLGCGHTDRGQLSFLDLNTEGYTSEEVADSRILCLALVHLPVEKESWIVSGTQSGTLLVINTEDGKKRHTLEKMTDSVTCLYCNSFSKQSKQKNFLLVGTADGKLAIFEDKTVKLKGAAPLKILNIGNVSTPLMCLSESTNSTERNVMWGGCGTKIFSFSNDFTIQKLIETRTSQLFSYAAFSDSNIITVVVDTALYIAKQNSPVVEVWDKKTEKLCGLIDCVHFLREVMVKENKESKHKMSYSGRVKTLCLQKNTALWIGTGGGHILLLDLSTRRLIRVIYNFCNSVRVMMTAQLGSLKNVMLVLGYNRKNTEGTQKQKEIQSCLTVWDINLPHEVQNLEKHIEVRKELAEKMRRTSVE", "test": "LRRK2 G2019S Km ATP LanthaScreen assay", "format": "biochemical", "details": "134 μM ATP (Km ATP), LRRKtide substrate, mean of several tests", "description": "(§1) Unless otherwise noted, all reactions are magnetically stirred. Unless otherwise noted, when diethyl ether is used in the experiments described below, it is Fisher ACS certified material and is stabilized with BHT. Unless otherwise noted, “concentrated” and/or “solvent removed under reduced pressure” means evaporating the solvent from a solution or mixture using a rotary evaporator or vacuum pump. Unless otherwise noted, flash chromatography is carried out on a Teledyne Isco (Lincoln, NE), Analogix (Burlington, WI), or Biotage (Stockholm, SWE) automated chromatography system using a commercially available cartridge as the column. Columns may be purchased from Teledyne Isco, Analogix, Biotage, Varian (Palo Alto, CA), or Supelco (Bellefonte, PA) and are usually filled with silica gel as the stationary phase. Reverse phase prep-HPLC conditions, where used, can be found at the end of each experimental section. Aqueous solutions were concentrated on a Genevac (Ipswich, ENG) or by freeze-drying/lyophilization. Unless otherwise noted, all LRRK2 pIC50 data presented in tables refers to the LRRK2 G2019S Km ATP LanthaScreen™ assay (Life Technologies Corp., Carlsbad, CA) that is described in the Biological Assay section.\n(§2) Biological Assay: LRRK2 Km ATP LanthaScreen™ Assay\n(§3) The LRRK2 kinase activity reported herein as IC50 values was determined with LanthaScreen™ technology from Life Technologies Corporation (Carlsbad, CA) using GST-tagged truncated human mutant G2019S LRRK2 in the presence of the fluorescein-labeled peptide substrate LRRKtide, also from Life Technologies. The data presented for the Km ATP LanthaScreen™ Assay represents mean IC50 values based on several test results and may have reasonable deviations depending on the specific conditions and reagents used. Assays were performed in the presence of 134 μM ATP (Km ATP). Upon completion, the assay was stopped and phosphorylated substrate detected with a terbium (Tb)-labeled anti-pERM antibody (cat. no. PV4898). The compound dose response was prepared by diluting a 10 mM stock of compound to a maximum concentration of 9.99 μM in 100% dimethylsulfoxide followed by custom fold serial dilution in dimethylsulfoxide nine times. Twenty nanoliters of each dilution was spotted via a Labcyte Echo onto a 384-well black-sided plate (Corning 3575) followed by 15 μl of a 1.25 nM enzyme solution in 1× assay buffer (50 mM Tris pH 8.5, 10 mM MgCl2, 0.01% Brij-35, 1 mM EGTA, 2 mM dithiothreitol, 0.05 mM sodium orthovanadate). Following a 15-minute incubation at room temperature, the kinase reaction was started with the addition of 5 μl of 400 nM fluorescein-labeled LRRKtide peptide substrate and 134 μM ATP solution in 1× assay buffer. The reaction was allowed to progress at ambient temperature for 90 minutes. The reaction was then stopped by the addition of 20 μl of TR-FRET Dilution Buffer (Life Technologies, Carlsbad, CA) containing 2 nM Tb-labeled anti-phospho LRRKtide antibody and 10 mM EDTA (Life Technologies, Carlsbad, CA). After an incubation of 1 hour at room temperature, the plate was read on an EnVision multimode plate reader (Perkin Elmer, Waltham, MA) with an excitation wavelength of 337 nm (Laser) and a reading emission at both 520 and 495 nm. Compound IC50s were interpolated from nonlinear regression best fits of the log of the final compound concentration, plotted as a function of the 520/495-nm emission ratio using Activity base. Abase uses a 4 parameter (4P) logistic fit based on the Levenberg-Marquardt algorithm.", "values": [{"smiles": "Cn1cc(C2CC2C(=O)Nc2cc3cc(N4CCC(F)(C#N)CC4)c(Cl)cc3cn2)cn1", "note": "(centres unmarked) [Ex-4.11]", "LRRK2 pIC50": 7.39}]}, {"biological_target": "T1, GST-tagged truncated human mutant G2019S LRRK2", "test": "LRRK2 G2019S Km ATP LanthaScreen assay", "format": "biochemical", "details": "134 μM ATP (Km ATP), LRRKtide substrate, mean of several tests, read-out: LRRK2 pIC50 (converted)", "description": "as §1, §2, §3", "units": {"IC50": "nM"}, "values": [{"smiles": "Cn1ncc(C2CC2C(=O)Nc2cc3cc(N4CCN(C5(C)CCOC5)CC4)c(Cl)cc3cn2)c1C(F)(F)F", "note": "(single isomer, unassigned) [Ex-10.25, (1R,2R or 1S,2S)-N-[7-chloro-6-[4-((R or S)-3-methyltetrahydrofuran-3-yl)piperazin-4-ium-1-yl]-3-isoquinolyl]-2-[1-methyl-5-(trifluoromethyl)pyrazol-4-yl]cyclopropanecarboxamide]", "IC50": 3.72}, {"smiles": "CC1(C2CCOC2)CC1C(=O)Nc1cc2cc(N3CCN(C4(C)COCC4O)CC3)c(Cl)cc2cn1", "note": "(single isomer, unassigned) [Ex-10.82, (1R,2R or 1S,2S, or 1R,2S, or 1S,2R)-N-[7-chloro-6-[4-((3R,4R or 3S,4S)-4-hydroxy-3-methyl-tetrahydrofuran-3-yl)piperazin-1-yl]-3-isoquinolyl]-2-methyl-2-tetrahydrofuran-3-yl-cyclopropanecarboxamide]", "IC50": 0.1}, {"smiles": "COC1COCC1N1CCN(c2cc3cc(NC(=O)C4CC45CCOCC5)ncc3cc2Cl)CC1", "note": "(single isomer, unassigned) [Ex-5.7]", "IC50": 2.63}, {"smiles": "COCC1CCC1C(=O)Nc1cc2cc(N3CCN(C4(C)COCC4O)CC3)c(Cl)cc2cn1", "note": "(single isomer, unassigned) [Ex-1.25, (1R,2S or 1R,2R, or 1S,2S, or 1S,2R)-N-(7-chloro-6-(4-((3R,4R)-4-hydroxy-3-methyltetrahydrofuran-3-yl)piperazin-1-yl)isoquinolin-3-yl)-2-(methoxymethyl)cyclobutane-1-carboxamide]", "IC50": 0.158}, {"smiles": "Cc1cc2cnc(NC(=O)C3CC3c3cnn(C)c3C(F)(F)F)cc2cc1N1CCN(C2(C)CCOC2)CC1", "note": "(single isomer, unassigned) [Ex-10.36, (1R,2R or 1S,2S)-N-[7-methyl-6-[4-((R or S)-3-methyltetrahydrofuran-3-yl)piperazin-1-yl]-3-isoquinolyl]-2-[1-methyl-5-(trifluoromethyl)pyrazol-4-yl]cyclopropanecarboxamide]", "IC50": 107}, {"smiles": "Cc1cc2cnc(NC(=O)C3CC34CCOC4)cc2cc1N1CCN(C2(C)COCC2O)CC1", "note": "(single isomer, unassigned) [Ex-6.7, (1R, 3S or 1S,3R, or 1R,3S, or 1S,3S)-N-(6-(4-((3R, 4R or 3S,4S)-4-hydroxy-3-methyltetrahydrofuran-3-yl)piperazin-1-yl)-7-methylisoquinolin-3-yl)-5-oxaspiro[2.4]heptane-1-carboxamide]", "IC50": 126}, {"smiles": "CC1(N2CCN(c3cc4cc(NC(=O)C5CC56CCOC6)ncc4cc3Cl)CC2)COCC1O", "note": "(single isomer, unassigned) [Ex-2.9, (1R,3R or 1S,3S)-N-(7-chloro-6-(4-((3R,4R or 3S,4S)-4-hydroxy-3-methyltetrahydrofuran-3-yl)piperazin-1-yl)isoquinolin-3-yl)-5-oxaspiro[2.4]heptane-1-carboxamide]", "IC50": 0.195}, {"smiles": "Cn1ncc(C2CC2C(=O)Nc2cc3cc(N4CCN(C5(C)CCOC5)CC4)c(Cl)cc3cn2)c1C(F)(F)F", "note": "(single isomer, unassigned) [Ex-10.27, (1R,2R or 1S,2S)-N-[7-chloro-6-[4-((R or S)-3-methyltetrahydrofuran-3-yl)piperazin-4-ium-1-yl]-3-isoquinolyl]-2-[1-methyl-5-(trifluoromethyl)pyrazol-4-yl]cyclopropanecarboxamide]", "IC50": 38}, {"smiles": "CC1(N2CCN(c3cc4cc(NC(=O)C5CCC56CCOCC6)ncc4cc3Cl)CC2)COCC1O", "note": "(single isomer, unassigned) [Ex-1.27, (R or S)-N-(7-chloro-6-(4-((3R,4R or 3S,4S)-4-hydroxy-3-methyltetrahydrofuran-3-yl)piperazin-1-yl)isoquinolin-3-yl)-7-oxaspiro[3.5]nonane-1-carboxamide]", "IC50": 1.29}, {"smiles": "CC1(N2CCN(c3cc4cc(NC(=O)C5CC56CCOCC6)ncc4cc3Cl)CC2)COCC1O", "note": "(single isomer, unassigned) [Ex-2.2, (R or S)-N-(7-chloro-6-(4-((3R,4R or 3S,4S)-4-hydroxy-3-methyltetrahydrofuran-3-yl)piperazin-1-yl)isoquinolin-3-yl)-6-oxaspiro[2.5]octane-1-carboxamide]", "IC50": 3.63}, {"smiles": "CC1(N2CCN(c3cc4cc(NC(=O)C5CC5C(F)F)ncc4cc3Cl)CC2)COCC1F", "note": "(single isomer, unassigned) [Ex-10.77, (1R,2R or 1S,2S)-N-[7-chloro-6-[4-((3R,4R or 3S,4S)-4-fluoro-3-methyl-tetrahydrofuran-3-yl)piperazin-1-yl]-3-isoquinolyl]-2-(difluoromethyl)cyclopropanecarboxamide]", "IC50": 0.0813}, {"smiles": "CCC1C(C(=O)Nc2cc3cc(N4CCN(C5(C)COCC5F)CC4)c(Cl)cc3cn2)C1c1ccn(C)n1", "note": "(single isomer, unassigned) [Ex-10.50, (1R,2R,3R, 1R,2S,3R, or 1S,2R,3S, or 1S,2S,3S)-N-[7-chloro-6-[4-((3R,4R or 3S,4S)-4-fluoro-3-methyl-tetrahydrofuran-3-yl)piperazin-1-yl]-3-isoquinolyl]-2-ethyl-3-(1-methylpyrazol-3-yl)cyclopropanecarboxamide]", "IC50": 0.0813}, {"smiles": "COC1COCC1(C)N1CCN(c2cc3cc(NC(=O)C4CC45CCOCC5)ncc3cc2Cl)CC1", "note": "(single isomer, unassigned) [Ex-5.4]", "IC50": 28.8}, {"smiles": "CC1(N2CCN(c3cc4cc(NC(=O)C5CC5)ncc4cc3F)CC2)COCC1O", "note": "(single isomer, unassigned) [Ex-1.5, (3R,4R or 3S,4S)-N-(7-fluoro-6-(4-(4-hydroxy-3-methyltetrahydrofuran-3-yl)piperazin-1-yl)isoquinolin-3-yl)cyclopropanecarboxamide]", "IC50": 7.08}, {"smiles": "CC1(C)CC2(CCO1)CC2C(=O)Nc1cc2cc(N3CCN(C4(C)COCC4O)CC3)c(Cl)cc2cn1", "note": "(single isomer, unassigned) [Ex-7.5]", "IC50": 0.155}, {"smiles": "CCC1C(C(=O)Nc2cc3cc(N4CCN(C5(C)COCC5F)CC4)c(Cl)cc3cn2)C1c1ccccn1", "note": "(single isomer, unassigned) [Ex-10.89, (1R,2R,3R, or 1R,2S,3R, or 1S,2R,3S, or 1S,2S,3S)-N-[7-chloro-6-[4-((3R,4R or 3S,4S)-4-fluoro-3-methyl-tetrahydrofuran-3-yl)piperazin-1-yl]-3-isoquinolyl]-2-ethyl-3-(2-pyridyl)cyclopropanecarboxamide]", "IC50": 0.0813}, {"smiles": "CC1(C2CCOC2)CC1C(=O)Nc1cc2cc(N3CCN(C4(C)COCC4O)CC3)c(Cl)cc2cn1", "note": "(single isomer, unassigned) [Ex-10.88, (1R,2R or 1S,2S, or 1R,2S, or 1S,2R)-N-[7-chloro-6-[4-((3R,4R or 3S,4S)-4-hydroxy-3-methyl-tetrahydrofuran-3-yl)piperazin-1-yl]-3-isoquinolyl]-2-methyl-2-tetrahydrofuran-3-yl-cyclopropanecarboxamide]", "IC50": 0.182}, {"smiles": "CC1(N2CCN(c3cc4cc(NC(=O)C5CC5c5ccco5)ncc4cc3Cl)CC2)COCC1O", "note": "(single isomer, unassigned) [Ex-10.29, (1R,2R or 1S,2S)-N-[7-chloro-6-[4-((3R,4R or 3S,4S)-4-hydroxy-3-methyl-tetrahydrofuran-3-yl)piperazin-1-yl]-3-isoquinolyl]-2-(2-furyl)cyclopropanecarboxamide]", "IC50": 0.275}, {"smiles": "Cn1ncc(C2CC2C(=O)Nc2cc3cc(N4CCN(C5(C)CCOC5)CC4)c(Cl)cc3cn2)c1C(F)(F)F", "note": "(single isomer, unassigned) [Ex-10.28, (1R,2R or 1S,2S)-N-[7-chloro-6-[4-((R or S)-3-methyltetrahydrofuran-3-yl)piperazin-4-ium-1-yl]-3-isoquinolyl]-2-[1-methyl-5-(trifluoromethyl)pyrazol-4-yl]cyclopropanecarboxamide]", "IC50": 56.2}]}]}
